Measured values reported in PubChem BioAssay (NCI).
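Grown in 96-well plates, cells were treated for 48 hours with each compound at five concentrations. Insufficient inhibition: endpoint recorded as highest concentration tested. At the TGI there is no net growth.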

Assays:
Experiment in all cases: NCI-60 cell line screen, 48 h
DU-145 prostate = test system: DU-145 prostate
MDA-MB-435 = test system: MDA-MB-435
UO-31 renal = test system: UO-31 renal
SF-295 CNS = test system: SF-295 CNS
NCI/ADR-RES ovarian = test system: NCI/ADR-RES ovarian
MCF7 breast = test system: MCF7 breast
CCRF-CEM leukemia = test system: CCRF-CEM leukemia
OVCAR-5 ovarian = test system: OVCAR-5 ovarian
NCI-H23 lung = test system: NCI-H23 lung
RPMI-8226 leukemia = test system: RPMI-8226 leukemia

Row | SMILES | TGI (DU-145 prostate) [µM] | TGI (MDA-MB-435) [µM] | TGI (UO-31 renal) [µM] | TGI (SF-295 CNS) [µM] | TGI (NCI/ADR-RES ovarian) [µM] | TGI (MCF7 breast) [µM] | TGI (CCRF-CEM leukemia) [µM] | TGI (OVCAR-5 ovarian) [µM] | TGI (NCI-H23 lung) [µM] | TGI (RPMI-8226 leukemia) [µM]
1 | c1ccc(CNc2c3c(nc4ccccc24)CCC3)cc1 | 62.5 | 30.6 | 25 | 22 | 44.2 | 30.9 | 20.9 | 51.4 | 46.2 | 29.9
2 | Cc1c(C)c(C)c(-n2[nH]c(=O)n(C)c2=O)c(C)c1C | > 100 | > 100 | > 100 | > 100 | > 100 | > 100 | > 100 | > 100 | > 100 | > 100
3 | CCOC(C[Se]CC(OCC)OCC)OCC | 85.7 | > 100 | > 100 | > 100 | > 100 | > 100 | 95.9 | > 100 | > 100 | > 100
4 | COC(=O)Cc1ccc2c(c1)Sc1ccc(CC(=O)OC)cc1N2C | > 100 | > 100 | > 58.5 | > 87.1 | > 68.3 | > 63.5 | > 95.7 | > 100 | > 77.9 | > 100
5 | C=CCC(C)C12CCNC(Cc3ccc(O)cc31)C2C (stereo not given) | > 100 | > 100 | > 100 | > 100 | > 100 | > 100 | > 100 | > 100 | > 100 | > 100
6 | Cc1nc2ccc(S(=O)(=O)Nc3ccc(Cl)cc3)cc2c(=O)n1NC(=O)CNc1ccc(Cl)cc1 | > 100 | > 100 | > 100 | > 100 | > 100 | > 100 | > 100 | > 100 | > 100 | > 100
